These results are taken from patent publication US20230183218A1, “CONDENSED SUBSTITUTED HYDROPYRROLES AS ANTAGONISTS OF THE MUSCARINIC ACETYLCHOLINE RECEPTOR M4” (Vanderbilt University, priority 2020, published 2023).

In one assay the target is T1, Rat M4 (Rattus norvegicus, UniProt P08485).
T1 construct: expressed in transfected cells; host or cells: CHO-K1 (ATCC), stably co-expressing chimeric G protein Gqi5
T1 sequence (P08485 1-478): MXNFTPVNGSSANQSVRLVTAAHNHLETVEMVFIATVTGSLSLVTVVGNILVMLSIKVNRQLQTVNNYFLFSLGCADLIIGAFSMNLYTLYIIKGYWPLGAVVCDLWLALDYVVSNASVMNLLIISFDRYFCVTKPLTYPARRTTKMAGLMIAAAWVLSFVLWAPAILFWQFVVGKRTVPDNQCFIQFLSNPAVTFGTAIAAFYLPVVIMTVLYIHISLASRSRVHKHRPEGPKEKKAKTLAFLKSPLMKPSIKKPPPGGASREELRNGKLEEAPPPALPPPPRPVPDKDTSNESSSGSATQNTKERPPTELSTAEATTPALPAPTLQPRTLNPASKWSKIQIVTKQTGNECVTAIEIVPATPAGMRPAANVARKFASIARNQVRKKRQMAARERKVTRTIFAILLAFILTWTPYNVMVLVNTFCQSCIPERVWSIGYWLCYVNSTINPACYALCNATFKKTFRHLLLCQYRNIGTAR
As to the kind of experiment: mAChR M4 cell-based functional assay (calcium flux, antagonist mode vs EC80 acetylcholine), rat M4/Gqi5/CHO-K1 cells. The settings on record: for remaining activity at 30 µM: CHO-K1, % ACh maximum at 30 μM, rat M4, read-out: Rat M4 Emin (%); for IC50: decrease of response elicited by EC80 acetylcholine, rat M4/Gqi5 CHO-K1 cells. Put shortly:
(§1)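 CHO-K1 cells stably expressing human or rat M4 with Gqi5, Fluo-4 loaded; calcium measured by fluorescence ratio on FDSS. Compound added, then EC20 acetylcholine at 143 s and EC80 at 268 s; IC50 from decrease of EC80 response, four-parameter logistic fit.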
For orientation: Calcium assays in cells follow changes in intracellular calcium, usually with a dye or a luminescent sensor.

For the next assay, the target named is T2, Human M4 (Homo sapiens, UniProt P08173).
T2 construct: expressed in transfected cells; host or cells: CHO-K1 (ATCC), stably co-expressing chimeric G protein Gqi5
T2 sequence (P08173 1-479): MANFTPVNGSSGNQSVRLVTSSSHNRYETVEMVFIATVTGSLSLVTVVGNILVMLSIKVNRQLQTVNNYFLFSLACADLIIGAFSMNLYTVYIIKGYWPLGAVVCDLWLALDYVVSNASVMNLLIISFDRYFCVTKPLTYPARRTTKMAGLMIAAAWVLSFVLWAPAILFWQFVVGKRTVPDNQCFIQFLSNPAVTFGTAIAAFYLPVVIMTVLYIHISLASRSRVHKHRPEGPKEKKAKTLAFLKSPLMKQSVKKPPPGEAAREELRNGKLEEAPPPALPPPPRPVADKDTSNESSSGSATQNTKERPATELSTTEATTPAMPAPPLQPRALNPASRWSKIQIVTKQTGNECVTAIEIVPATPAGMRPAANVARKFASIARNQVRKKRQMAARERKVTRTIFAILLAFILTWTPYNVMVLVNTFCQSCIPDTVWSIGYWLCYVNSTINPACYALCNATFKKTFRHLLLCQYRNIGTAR
In words: mAChR M4 cell-based functional assay (calcium flux, antagonist mode vs EC80 acetylcholine), human M4/Gqi5/CHO-K1 cells. Particulars: for remaining activity at 30 µM: CHO-K1, % ACh maximum at 30 μM, human M4, read-out: Human M4 Emin (%); for IC50: decrease of response elicited by EC80 acetylcholine, human M4/Gqi5 CHO-K1 cells. Put shortly: as §1

As to `Fc1ccc(Cl)c(-c2ccc(N[C@H]3C[C@@H]4CN(C5CCC6(CCOCC6)CC5)C[C@@H]4C3)nn2)c1` [compound 78, (3aR,5s,6aS)-N-(6-(2-chloro-5-fluorophenyl)pyridazin-3-yl)-2-(3-oxaspiro[5.5]undecan-9-yl)octahydrocyclopenta[c]pyrrol-5-amine], at Rat M4, the remaining activity at 30 µM amounted to 3% and the IC50 turned out to be 102 nM. In addition, at Human M4, the remaining activity at 30 µM was determined as 3% and the IC50 is 2.3 nM.

As for `CC1(C)CC(N2C[C@H]3C[C@H](Nc4ccc(N5CCOCC5)nn4)C[C@H]3C2)CCO1` (stereo partly drawn) [compound 60, (3aR,5s,6aS)-2-(2,2-dimethyltetrahydro-2H-pyran-4-yl)-N-(6-morpholinopyridazin-3-yl)octahydrocyclopenta[c]pyrrol-5-amine], at Rat M4, the remaining activity at 30 µM was determined as 14% and the IC50 amounted to 5170 nM. Moreover, at Human M4, the remaining activity at 30 µM stood at 5% and the IC50 turned out to be 49.4 nM.

`O=C(Nc1ccccc1F)c1ccc(N[C@H]2C[C@@H]3CN(CC4CCOCC4)C[C@@H]3C2)nn1` [compound 8, N-(2-fluorophenyl)-6-(((3aR,5s,6aS)-2-((tetrahydro-2H-pyran-4-yl)methyl)octahydrocyclopenta[c]pyrrol-5-yl)amino)pyridazine-3-carboxamide]: at Rat M4, the remaining activity at 30 µM worked out at 25% and the IC50 is > 10000 nM. Also, on Human M4, the remaining activity at 30 µM was 4% and the IC50 is 355 nM.

As for `Fc1ccc(Cl)c(-c2ccc(N[C@H]3C[C@@H]4CN(C5CCOCC5)C[C@@H]4C3)nn2)c1` [compound 2, (3aR,5s,6aS)-N-(6-(2-chloro-5-fluorophenyl)pyridazin-3-yl)-2-(tetrahydro-2H-pyran-4-yl)octahydrocyclopenta[c]pyrrol-5-amine], at Rat M4, the remaining activity at 30 µM was determined as 6% and the IC50 turned out to be 1270 nM. On Human M4, the remaining activity at 30 µM is 5% and the IC50 worked out at 64.7 nM.

As for `O=S(=O)(c1ccccc1)c1nnc(N[C@H]2C[C@@H]3CN(CC4CCOCC4)C[C@@H]3C2)cc1NC1CC1` [compound 39, N^5-cyclopropyl-6-(phenylsulfonyl)-N^3-((3aR,5s,6aS)-2-((tetrahydro-2H-pyran-4-yl)methyl)octahydrocyclopenta[c]pyrrol-5-yl)pyridazine-3,5-diamine], at Rat M4, the remaining activity at 30 µM was determined as 4% and the IC50 was determined as 288 nM. Also, on Human M4, the remaining activity at 30 µM came to 4% and the IC50 is 70.7 nM.

Consider `O=S(=O)(c1ccc(N[C@H]2C[C@@H]3CN(CC4CCOCC4)C[C@@H]3C2)nn1)C1CCCCC1` [compound 34, (3aR,5s,6aS)-N-(6-(cyclohexylsulfonyl)pyridazin-3-yl)-2-((tetrahydro-2H-pyran-4-yl)methyl)octahydrocyclopenta[c]pyrrol-5-amine], for which the remaining activity at 30 µM on Rat M4 was 5%; on Human M4, 4%. Moreover, the IC50 on Rat M4 was determined as 119 nM; on Human M4 it was 7.75 nM.

On to `Cc1cccnc1CN1C[C@H]2C[C@H](Nc3ccc(S(=O)(=O)C4CCCCC4)nn3)C[C@H]2C1` [compound 43, (3aR,5s,6aS)-N-(6-(cyclohexylsulfonyl)pyridazin-3-yl)-2-((3-methylpyridin-2-yl)methyl)octahydrocyclopenta[c]pyrrol-5-amine], for which, on Rat M4, the remaining activity at 30 µM was found to be 11% and the IC50 is 1260 nM. Besides, on Human M4, the remaining activity at 30 µM is 5% and the IC50 came to 76.3 nM.

As for `CC1(C)CC(N2C[C@H]3C[C@H](Nc4ccc(S(=O)(=O)C5CCCCC5)nn4)C[C@H]3C2)CCO1` (stereo partly drawn) [compound 36, (3aR,5s,6aS)-N-(6-(cyclohexylsulfonyl)pyridazin-3-yl)-2-(2,2-dimethyltetrahydro-2H-pyran-4-yl)octahydrocyclopenta[c]pyrrol-5-amine], at Rat M4, the remaining activity at 30 µM stood at 7% and the IC50 turned out to be 460 nM. Moreover, on Human M4, the remaining activity at 30 µM was determined as 5% and the IC50 came out at 51.5 nM.

`Fc1ccc(Cl)c(-c2ccc(N[C@H]3C[C@@H]4CN(C5CCC(F)(F)CC5)C[C@@H]4C3)nn2)c1` [compound 67, (3aR,5s,6aS)-N-(6-(2-chloro-5-fluorophenyl)pyridazin-3-yl)-2-(4,4-difluorocyclohexyl)octahydrocyclopenta[c]pyrrol-5-amine]: on Rat M4, the remaining activity at 30 µM was found to be 13% and the IC50 was 436 nM. Besides, on Human M4, the remaining activity at 30 µM came out at 4% and the IC50 was found to be 2.42 nM.

As for `Cc1cc2c(cc1CN1C[C@H]3C[C@H](Nc4ccc(S(=O)(=O)c5ccccc5)nn4)C[C@H]3C1)OCO2` [compound 42, (3aR,5s,6aS)-2-((6-methylbenzo[d][1,3]dioxol-5-yl)methyl)-N-(6-(phenylsulfonyl)pyridazin-3-yl)octahydrocyclopenta[c]pyrrol-5-amine], at Rat M4, the remaining activity at 30 µM was 14% and the IC50 stood at 3110 nM. Besides, on Human M4, the remaining activity at 30 µM turned out to be 3% and the IC50 is 1000 nM.

With `CC(C)(C)CCN1C[C@H]2C[C@H](Nc3ccc(S(=O)(=O)c4ccccc4)nn3)C[C@H]2C1` [compound 50, (3aR, 5s,6aS)-2-(3,3-dimethylbutyl)-N-(6-(phenylsulfonyl)pyridazin-3-yl)octahydrocyclopenta[c]pyrrol-5-amine], on Rat M4, the remaining activity at 30 µM amounted to 4% and the IC50 came to 130 nM. On Human M4, the remaining activity at 30 µM was found to be 3% and the IC50 is 18 nM.

On to `CC1(C)CC(N2C[C@H]3C[C@H](Nc4ccc(Cl)nn4)C[C@H]3C2)CCO1` (stereo partly drawn) [compound 51, (3aR,5s,6aS)-N-(6-chloropyridazin-3-yl)-2-(2,2-dimethyltetrahydro-2H-pyran-4-yl)octahydrocyclopenta[c]pyrrol-5-amine], for which, at Rat M4, the remaining activity at 30 µM was 38% and the 50% inhibitory concentration (IC50) is > 10000 nM. In addition, on Human M4, the remaining activity at 30 µM worked out at 9% and the IC50 came to 8560 nM.

With `CC1(C)CC(N2C[C@H]3C[C@H](Nc4ccc(-c5ccc(F)cc5)nn4)C[C@H]3C2)CCO1` (stereo partly drawn) [compound 54, (3aR,5s,6aS)-2-(2,2-dimethyltetrahydro-2H-pyran-4-yl)-N-(6-(4-fluorophenyl)pyridazin-3-yl)octahydrocyclopenta[c]pyrrol-5-amine], the results for the remaining activity at 30 µM on Rat M4 and on Human M4 were 5% and 3%, respectively. In addition, the IC50 at Rat M4 worked out at 534 nM; on Human M4 it was 32.9 nM.

Turning to `CC(C)(C)CCN1C[C@H]2C[C@H](Nc3ccc(S(=O)(=O)C4CCCCC4)nn3)C[C@H]2C1` [compound 49, (3aR,5s,6aS)-N-(6-(cyclohexylsulfonyl)pyridazin-3-yl)-2-(3,3-dimethylbutyl)octahydrocyclopenta[c]pyrrol-5-amine], at Rat M4, the remaining activity at 30 µM stood at 4% and the IC50 was found to be 63.8 nM. On Human M4, the remaining activity at 30 µM was 3% and the IC50 was 5.75 nM.

For `Fc1ccc(Cl)c(-c2ccc(N[C@H]3C[C@@H]4CN(C5CC6(COC6)C5)C[C@@H]4C3)nn2)c1` [compound 69, (3aR,5s,6aS)-N-(6-(2-chloro-5-fluorophenyl)pyridazin-3-yl)-2-(2-oxaspiro[3.3]heptan-6-yl)octahydrocyclopenta[c]pyrrol-5-amine], the remaining activity at 30 µM was determined as 17% at Rat M4 and 4% on Human M4. Besides, the IC50 at Rat M4 turned out to be 905 nM; on Human M4, 11.8 nM.

For the compound `CC1(C)CC(N2C[C@H]3C[C@H](Nc4ccc([S+]([O-])c5ccccc5)nn4)C[C@H]3C2)CCO1` (stereo partly drawn) [compound 65, (3aR,5s,6aS)-2-(2,2-dimethyltetrahydro-2H-pyran-4-yl)-N-(6-(phenylsulfinyl)pyridazin-3-yl)octahydrocyclopenta[c]pyrrol-5-amine], the remaining activity at 30 µM is 10% at Rat M4 and 5% on Human M4.

As to `Fc1ccc(Cl)c(-c2ccc(N[C@H]3C[C@@H]4CN(C5CCCCC5)C[C@@H]4C3)nn2)c1` [compound 12, (3aR,5s,6aS)-N-(6-(2-chloro-5-fluorophenyl)pyridazin-3-yl)-2-cyclohexyloctahydrocyclopenta[c]pyrrol-5-amine], the remaining activity at 30 µM on Rat M4 is 5%; at Human M4, 4%. The values for the IC50 at Rat M4 and on Human M4 were 445 nM and 2.85 nM, respectively.

Broadly, the IC50 is the midpoint of a concentration-inhibition curve.
